Molecules are shown by their SMILES. Some results are limits rather than exact numbers.

Sequence of unphosphorylated-BTK kinase domain (UP-BTK), GST-tagged human BTK (389-659aa) (Q06187 389-659): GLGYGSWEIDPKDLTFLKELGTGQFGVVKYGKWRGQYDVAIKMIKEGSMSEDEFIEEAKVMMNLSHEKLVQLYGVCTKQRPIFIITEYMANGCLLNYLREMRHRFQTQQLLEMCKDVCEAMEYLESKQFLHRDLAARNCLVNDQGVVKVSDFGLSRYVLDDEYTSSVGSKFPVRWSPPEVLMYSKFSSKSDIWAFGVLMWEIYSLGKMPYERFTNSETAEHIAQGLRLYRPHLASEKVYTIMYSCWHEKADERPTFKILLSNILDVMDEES

The target of the first assay is unphosphorylated-BTK kinase domain (UP-BTK), GST-tagged human BTK (389-659aa) (Homo sapiens (Human), UniProt Q06187). The assay can be described thus: BTK Kinase Lanthascreen Binding Assay. Conditions: Lanthascreen binding, 60 minutes incubation; pIC50 = negative log of the IC50 in molar. How it is done: BTK Kinase Lanthascreen Binding Assay:
A BTK kinase lanthascreen binding assay monitors compound binding to unphosphorylated-BTK kinase domain (UP-BTK), by competing with a fluorescent labeled tracer. […] Data were analyzed using Xlfit™ version 5.3 from ID Business Solutions (Guildford), Microsoft Excel add-in. pIC50 refers to the negative log of the IC50 in molar.
For `CC(=O)NC1CCC[C@@H](NC(=O)c2sc3nccc4c3c2NC(=O)N4c2cnc(Oc3ccccc3)cc2C)C1` (single isomer, unassigned) [Example 422, N-((1R,3R)-3-Acetamidocyclohexyl)-5-(*S)-(4-methyl-6-phenoxypyridin-3-yl)-4-oxo-4,5-dihydro-3H-1-thia-3,5,8-triazaacenaphthylene-2-carboxamide], the “BTK_I_binding pIC50” value is reported as 7.72.
On the same count and under the same terms, with `CCC(=O)NC1CCC[C@@H](NC(=O)c2sc3nccc4c3c2NC(=O)N4c2cnc(Oc3ccccc3)cc2C)C1` (single isomer, unassigned) [Example 423, 5-(*S)-(4-Methyl-6-phenoxypyridin-3-yl)-4-oxo-N-((1R,3R)-3-propionamidocyclohexyl)-4,5-dihydro-3H-1-thia-3,5,8-triazaacenaphthylene-2-carboxamide] the figure was 7.75; with `C=CC(=O)N[C@H]1CCC[C@H]1NC(=O)c1sc2nccc3c2c1NC(=O)N3c1ccc(Oc2cccnn2)cc1C` (single isomer, unassigned) [Example 424, N-((1R,2S)-2-Acrylamidocyclopentyl)-5-(*S)-(2-methyl-4-(pyridazin-3-yloxy)phenyl)-4-oxo-4,5-dihydro-3H-1-thia-3,5,8-triazaacenaphthylene-2-carboxamide], 7.76.
Turning to `C=CC(=O)N[C@H]1CCC[C@H]1NC(=O)c1sc2nccc3c2c1NC(=O)N3c1ccc(Oc2cccnn2)cc1C` (single isomer, unassigned) [Example 425, N-((1R,2S)-2-Acrylamidocyclopentyl)-5-(*R)-(2-methyl-4-(pyridazin-3-yloxy)phenyl)-4-oxo-4,5-dihydro-3H-1-thia-3,5,8-triazaacenaphthylene-2-carboxamide], the “BTK_I_binding pIC50” value was found to be 6.67.
Still for that read-out and setting: with `C=CC(=O)N[C@H]1CCC[C@H]1NC(=O)c1sc2nccc3c2c1NC(=O)N3c1cnc(OC(C)C)cc1C` (single isomer, unassigned) [Example 426, N-((1R,2S)-2-Acrylamidocyclopentyl)-5-(*S)-(6-isopropoxy-4-methylpyridin-3-yl)-4-oxo-4,5-dihydro-3H-1-thia-3,5,8-triazaacenaphthylene-2-carboxamide] the figure was 8.20.
`C=CC(=O)N[C@H]1CC[C@@H](NC(=O)c2sc3nccc4c3c2NC(=O)N4c2cnc(OC(C)C)cc2C)C1` (single isomer, unassigned) [Example 427, N-((1R,3S)-3-Acrylamidocyclopentyl)-5-(*S)-(6-isopropoxy-4-methylpyridin-3-yl)-4-oxo-4,5-dihydro-3H-1-thia-3,5,8-triazaacenaphthylene-2-carboxamide]: the “BTK_I_binding pIC50” value is given as 7.88.
As for `Cc1cc(OC(C)C)ncc1N1C(=O)Nc2c(C(=O)N[C@@H]3CCC[C@@H]3N)sc3nccc1c23` (single isomer, unassigned) [Example 428, N-((1R,2S)-2-Aminocyclopentyl)-5-(*S)-(6-isopropoxy-4-methylpyridin-3-yl)-4-oxo-4,5-dihydro-3H-1-thia-3,5,8-triazaacenaphthylene-2-carboxamide], the “BTK_I_binding pIC50” value amounted to 6.67.
Turning to `C=CC(=O)N[C@@H]1CC[C@H](NC(=O)c2sc3nccc4c3c2NC(=O)N4c2cnc(Oc3ccccc3)cc2C)C1` (single isomer, unassigned) [Example 430, N-((1S,3R)-3-Acrylamidocyclopentyl)-5-(*S)-(4-methyl-6-phenoxypyridin-3-yl)-4-oxo-4,5-dihydro-3H-1-thia-3,5,8-triazaacenaphthylene-2-carboxamide], the “BTK_I_binding pIC50” value is reported as 8.17.
Still for that read-out and setting: the same measure for `Cc1cc(Oc2ccccc2)ncc1N1C(=O)Nc2c(C(=O)N[C@H]3CC[C@@H](N)C3)sc3nccc1c23` (single isomer, unassigned) [Example 431, N-((1S,3R)-3-Aminocyclopentyl)-5-(*S)-(4-methyl-6-phenoxypyridin-3-yl)-4-oxo-4,5-dihydro-3H-1-thia-3,5,8-triazaacenaphthylene-2-carboxamide]: 6.68.
Same read-out and setting: with `C=CC(=O)N[C@@H]1CCCC[C@H]1NC(=O)c1sc2nccc3c2c1NC(=O)N3c1ccc(Oc2ccccc2)cc1C` (single isomer, unassigned) [Example 439, N-((1R,2R)-2-Acrylamidocyclohexyl)-5-(*S)-(2-methyl-4-phenoxyphenyl)-4-oxo-4,5-dihydro-3H-1-thia-3,5,8-triazaacenaphthylene-2-carboxamide] the figure was 7.53; with `Cc1cc(Oc2ccccc2)ccc1N1C(=O)Nc2c(C(=O)N[C@@H]3CCCC[C@H]3N)sc3nccc1c23` (single isomer, unassigned) [Example 440, N-((1R,2R)-2-aminocyclohexyl)-5-(*S)-(2-methyl-4-phenoxyphenyl)-4-oxo-4,5-dihydro-3H-1-thia-3,5,8-triazaacenaphthylene-2-carboxamide], 7.07.
Still for that read-out and setting: with `Cc1cc(Oc2ccccc2)ccc1N1C(=O)Nc2c(C(=O)N[C@@H]3CCCC[C@H]3NC(=O)CN)sc3nccc1c23` (single isomer, unassigned) [Example 441, N-((1R,2R)-2-(2-Aminoacetamido)cyclohexyl)-5-(*S)-(2-methyl-4-phenoxyphenyl)-4-oxo-4,5-dihydro-3H-1-thia-3,5,8-triazaacenaphthylene-2-carboxamide] the figure was 7.01; with `CNCC(=O)N[C@@H]1CCCC[C@@H]1NC(=O)c1sc2nccc3c2c1NC(=O)N3c1ccc(Oc2ccccc2)cc1C` (single isomer, unassigned) [Example 443, 5-(*S)-(2-Methyl-4-phenoxyphenyl)-N-((1S,2R)-2-(2-(methylamino)acetamido)cyclohexyl)-4-oxo-4,5-dihydro-3H-1-thia-3,5,8-triazaacenaphthylene-2-carboxamide], 6.74; with `Cc1cc(Oc2ccccc2)ccc1N1C(=O)Nc2c(C(=O)N[C@H]3CCCC[C@H]3NC(=O)CN)sc3nccc1c23` (single isomer, unassigned) [Example 444, N-((1S,2R)-2-(2-Aminoacetamido)cyclohexyl)-5-(*S)-(2-methyl-4-phenoxyphenyl)-4-oxo-4,5-dihydro-3H-1-thia-3,5,8-triazaacenaphthylene-2-carboxamide], 6.73.
Regarding `CC(=O)N[C@@H]1CCCC[C@H]1NC(=O)c1sc2nccc3c2c1NC(=O)N3c1ccc(Oc2ccccc2)cc1C` (single isomer, unassigned) [Example 445, N-((1R,2R)-2-Acetamidocyclohexyl)-5-(*S)-(2-methyl-4-phenoxyphenyl)-4-oxo-4,5-dihydro-3H-1-thia-3,5,8-triazaacenaphthylene-2-carboxamide], the “BTK_I_binding pIC50” value was determined as 6.73.

Still in this assay, the particulars now being: read-out: BTK_I_binding pIC50 (converted).
For the molecule `C=CC(=O)N[C@@H]1CCC[C@H](NC(=O)c2sc3nccc4c3c2NC(=O)N4c2ccc(Oc3ccccc3)nc2C)C1` (single isomer, unassigned) [Example 411, N-((1S,3R)-3-Acrylamidocyclohexyl)-5-(*S)-(2-methyl-6-phenoxypyridin-3-yl)-4-oxo-4,5-dihydro-3H-1-thia-3,5,8-triazaacenaphthylene-2-carboxamide], the IC50 is greater than 1000 nM.
The same measure, in the same setting: with `CCC(=O)N[C@@H]1CCC[C@H](NC(=O)c2sc3nccc4c3c2NC(=O)N4c2ccc(Oc3ccccc3)nc2C)C1` (single isomer, unassigned) [Example 412, 5-(*S)-(2-Methyl-6-phenoxypyridin-3-yl)-4-oxo-N-((1S,3R)-3-propionamidocyclohexyl)-4,5-dihydro-3H-1-thia-3,5,8-triazaacenaphthylene-2-carboxamide] the figure was greater than 1000 nM; with `CC(=O)N[C@@H]1CCC[C@H](NC(=O)c2sc3nccc4c3c2NC(=O)N4c2ccc(Oc3ccccc3)nc2C)C1` (single isomer, unassigned) [Example 413, N-((1S,3R)-3-Acetamidocyclohexyl)-5-(*S)-(2-methyl-6-phenoxypyridin-3-yl)-4-oxo-4,5-dihydro-3H-1-thia-3,5,8-triazaacenaphthylene-2-carboxamide], greater than 1000 nM.
As to `Cc1nc(Oc2ccccc2)ccc1N1C(=O)Nc2c(C(=O)N[C@H]3CCC[C@@H](N)C3)sc3nccc1c23` (single isomer, unassigned) [Example 414, N-((1S,3R)-3-Aminocyclohexyl)-5-(*S)-(2-methyl-6-phenoxypyridin-3-yl)-4-oxo-4,5-dihydro-3H-1-thia-3,5,8-triazaacenaphthylene-2-carboxamide], the IC50 was greater than 1000 nM.
On the same count and under the same terms, the same measure for `Cc1nc(Oc2ccccc2)ccc1N1C(=O)Nc2c(C(=O)N[C@H]3CC[C@H](N)C3)sc3nccc1c23` (single isomer, unassigned) [Example 415, N-((1S,3S)-3-Aminocyclopentyl)-5-(*S)-(2-methyl-6-phenoxypyridin-3-yl)-4-oxo-4,5-dihydro-3H-1-thia-3,5,8-triazaacenaphthylene-2-carboxamide]: greater than 1000 nM; for `CCC(=O)N[C@H]1CCC[C@H](NC(=O)c2sc3nccc4c3c2NC(=O)N4c2cnc(Oc3ccccc3)cc2C)C1` (single isomer, unassigned) [Example 416, 5-(*S)-(4-Methyl-6-phenoxypyridin-3-yl)-4-oxo-N-((1S,3R)-3-propionamidocyclohexyl)-4,5-dihydro-3H-1-thia-3,5,8-triazaacenaphthylene-2-carboxamide]: greater than 1000 nM.
Consider `Cc1cc(OC(C)C)ncc1N1C(=O)Nc2c(C(=O)N[C@@H]3CC[C@H](N)C3)sc3nccc1c23` (single isomer, unassigned) [Example 429, N-((1R,3S)-3-Aminocyclopentyl)-5-(*S)-(6-isopropoxy-4-methylpyridin-3-yl)-4-oxo-4,5-dihydro-3H-1-thia-3,5,8-triazaacenaphthylene-2-carboxamide], for which the IC50 is greater than 1000 nM.

The values are drawn from patent publication US10934310B2, “Inhibitors of Bruton's tyrosine kinase and method of their use” (JANSSEN PHARMACEUTICA NV, priority 2015, dated 2021).
